Assay results: ChEMBL document CHEMBL1201862, “PubChem BioAssay data set” (2004)
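Each compound was tested at five concentrations against cells in 96-well plates for 48 hours. The concentration for 50% growth inhibition is given as GI50.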 Active and inactive are the calls of the source. No stated cut-off is given here; in the data, active = GI50 up to about 1.1 µM and inactive = higher.

Legend:
Assay in all cases: growth of human tumour cells (NCI), 48 h
SR = tested on: SR
OVCAR-4 = tested on: OVCAR-4
K562 = tested on: K562
U-251 = tested on: U-251
Malme-3M = tested on: Malme-3M
OVCAR-8 = tested on: OVCAR-8
NCI-H522 = tested on: NCI-H522
SK-MEL-2 = tested on: SK-MEL-2
EKVX = tested on: EKVX
SK-MEL-28 = tested on: SK-MEL-28
SK-OV-3 = tested on: SK-OV-3
MDA-N = tested on: MDA-N
HCT-15 = tested on: HCT-15
BT-549 = tested on: BT-549
NCI/ADR-RES = tested on: NCI/ADR-RES
IGROV-1 = tested on: IGROV-1
SN12C = tested on: SN12C
SF-539 = tested on: SF-539
A549 = tested on: A549
T47D = tested on: T47D
HCC 2998 = tested on: HCC 2998
M14 = tested on: M14
DU-145 = tested on: DU-145
SF-268 = tested on: SF-268
HOP-62 = tested on: HOP-62
UACC-257 = tested on: UACC-257
UO-31 = tested on: UO-31
HL-60 = tested on: HL-60
OVCAR-3 = tested on: OVCAR-3
RPMI-8226 = tested on: RPMI-8226
HCT-116 = tested on: HCT-116
TK-10 = tested on: TK-10
HOP-92 = tested on: HOP-92
MOLT-4 = tested on: MOLT-4
MCF7 = tested on: MCF7
OVCAR-5 = tested on: OVCAR-5
A498 = tested on: A498
KM12 = tested on: KM12
UACC-62 = tested on: UACC-62
CCRF-CEM = tested on: CCRF-CEM
RXF 393 = tested on: RXF 393
SK-MEL-5 = tested on: SK-MEL-5
LOX IMVI = tested on: LOX IMVI
SNB-75 = tested on: SNB-75
SW-620 = tested on: SW-620
MDA-MB-231 = tested on: MDA-MB-231
786-0 = tested on: 786-0
NCI-H226 = tested on: NCI-H226
NCI-H460 = tested on: NCI-H460
SF-295 = tested on: SF-295
COLO 205 = tested on: COLO 205
PC-3 = tested on: PC-3
SNB-19 = tested on: SNB-19
ACHN = tested on: ACHN
Hs-578T = tested on: Hs-578T
HT-29 = tested on: HT-29
NCI-H23 = tested on: NCI-H23
MDA-MB-435 = tested on: MDA-MB-435
CAKI-1 = tested on: CAKI-1

For `CC(C)COC(=O)OC(=O)c1ccc(N(C)Cc2cnc3nc(N)nc(N)c3n2)cc1`, the GI50 (SR) was 0.521 µM (active), the GI50 (OVCAR-4) was > 100 µM (inactive) and the GI50 (K562) was 0.466 µM (active). For the same compound, the GI50 (U-251) was > 29.7 µM (inactive), the GI50 (Malme-3M) was 36.1 µM (inactive) and the GI50 (OVCAR-8) was 6.12 µM (inactive). The GI50 (NCI-H522) was 23.1 µM (inactive), the GI50 (SK-MEL-2) was > 100 µM (inactive) and the GI50 (EKVX) was > 52.7 µM (inactive). The GI50 (SK-MEL-28) was > 86.1 µM (inactive), the GI50 (SK-OV-3) was > 100 µM (inactive) and the GI50 (MDA-N) was 7.96 µM (inactive). For the same compound, the GI50 (HCT-15) was 1.75 µM, the GI50 (BT-549) was 20.9 µM (inactive) and the GI50 (NCI/ADR-RES) was > 36.3 µM (inactive). The GI50 (IGROV-1) was 8.3 µM (inactive), the GI50 (SN12C) was > 100 µM (inactive) and the GI50 (SF-539) was 10.8 µM (inactive). The GI50 (A549) was 5.61 µM (inactive), the GI50 (T47D) was > 100 µM (inactive) and the GI50 (HCC 2998) was > 100 µM (inactive). The GI50 (M14) was 9.44 µM (inactive), the GI50 (DU-145) was 53.7 µM (inactive) and the GI50 (SF-268) was 9.89 µM (inactive). For the same compound, the GI50 (HOP-62) was 59.7 µM (inactive), the GI50 (UACC-257) was 47.3 µM (inactive) and the GI50 (UO-31) was > 51.3 µM (inactive). For the same compound, the GI50 (HL-60) was 8.34 µM (inactive), the GI50 (OVCAR-3) was > 100 µM (inactive) and the GI50 (RPMI-8226) was > 80.9 µM (inactive). The GI50 (HCT-116) was 2.43 µM (inactive), the GI50 (TK-10) was > 88.1 µM (inactive) and the GI50 (HOP-92) was 47.5 µM (inactive). For the same compound, the GI50 (MOLT-4) was 4.31 µM (inactive), the GI50 (MCF7) was 6.35 µM (inactive) and the GI50 (OVCAR-5) was > 100 µM (inactive). For the same compound, the GI50 (A498) was > 40.4 µM (inactive), the GI50 (KM12) was 26.5 µM (inactive) and the GI50 (UACC-62) was 6.53 µM (inactive). The GI50 (CCRF-CEM) was 3.69 µM (inactive), the GI50 (RXF 393) was 16.1 µM (inactive) and the GI50 (SK-MEL-5) was 5.22 µM (inactive). The GI50 (LOX IMVI) was 1.41 µM (inactive), the GI50 (SNB-75) was > 38.2 µM (inactive) and the GI50 (SW-620) was 3.86 µM (inactive). For the same compound, the GI50 (MDA-MB-231) was > 100 µM (inactive), the GI50 (786-0) was 5.37 µM (inactive) and the GI50 (NCI-H226) was > 100 µM (inactive). For the same compound, the GI50 (NCI-H460) was 5.64 µM (inactive), the GI50 (SF-295) was 15.7 µM (inactive) and the GI50 (COLO 205) was > 75.3 µM (inactive). For the same compound, the GI50 (PC-3) was 2.47 µM (inactive), the GI50 (SNB-19) was 16.1 µM (inactive) and the GI50 (ACHN) was 11.4 µM (inactive). The GI50 (Hs-578T) was > 100 µM (inactive), the GI50 (HT-29) was 26.9 µM (inactive) and the GI50 (NCI-H23) was 11 µM (inactive). The GI50 (MDA-MB-435) was > 100 µM (inactive) and the GI50 (CAKI-1) was > 32.1 µM (inactive).
For `NC1C/C(=N\O)c2c(I)sc(I)c21` (stereo not drawn), the GI50 (SR) was 4.8 µM (inactive), the GI50 (OVCAR-4) was 22 µM (inactive) and the GI50 (K562) was 8.04 µM (inactive). For the same compound, the GI50 (U-251) was 18.3 µM (inactive), the GI50 (Malme-3M) was 15.7 µM (inactive) and the GI50 (OVCAR-8) was 13.4 µM (inactive). The GI50 (NCI-H522) was 1.61 µM (inactive), the GI50 (SK-MEL-2) was 17.5 µM (inactive) and the GI50 (EKVX) was 19 µM (inactive). The GI50 (SK-MEL-28) was 17.5 µM (inactive), the GI50 (SK-OV-3) was 16.4 µM (inactive) and the GI50 (MDA-N) was 19.8 µM (inactive). The GI50 (HCT-15) was 13.4 µM, the GI50 (BT-549) was 15.9 µM (inactive) and the GI50 (NCI/ADR-RES) was 18.4 µM (inactive). The GI50 (IGROV-1) was 15.7 µM (inactive), the GI50 (SN12C) was 20.7 µM (inactive) and the GI50 (SF-539) was 6.08 µM (inactive). For the same compound, the GI50 (A549) was 16 µM (inactive), the GI50 (T47D) was 23.2 µM (inactive) and the GI50 (HCC 2998) was 20.1 µM (inactive). The GI50 (M14) was 14.5 µM (inactive), the GI50 (DU-145) was 17.4 µM (inactive) and the GI50 (SF-268) was 17.7 µM (inactive). For the same compound, the GI50 (HOP-62) was 18.2 µM (inactive), the GI50 (UACC-257) was 16 µM (inactive) and the GI50 (UO-31) was 13 µM (inactive). For the same compound, the GI50 (HL-60) was 4.23 µM (inactive), the GI50 (OVCAR-3) was 15.8 µM (inactive) and the GI50 (RPMI-8226) was 6.7 µM (inactive). For the same compound, the GI50 (HCT-116) was 2.86 µM (inactive), the GI50 (TK-10) was 16.9 µM (inactive) and the GI50 (HOP-92) was 17.1 µM (inactive). For the same compound, the GI50 (MOLT-4) was 3.05 µM (inactive), the GI50 (MCF7) was 7.31 µM (inactive) and the GI50 (OVCAR-5) was 15.7 µM (inactive). For the same compound, the GI50 (A498) was 27 µM (inactive), the GI50 (KM12) was 13.1 µM (inactive) and the GI50 (UACC-62) was 17.3 µM (inactive). The GI50 (CCRF-CEM) was 2.44 µM (inactive), the GI50 (RXF 393) was 21.3 µM (inactive) and the GI50 (SK-MEL-5) was 14.8 µM (inactive). The GI50 (LOX IMVI) was 1.77 µM (inactive), the GI50 (SNB-75) was 18.9 µM (inactive) and the GI50 (SW-620) was 9.82 µM (inactive). For the same compound, the GI50 (MDA-MB-231) was 21.3 µM (inactive), the GI50 (786-0) was 16 µM (inactive) and the GI50 (NCI-H226) was 18.4 µM (inactive). For the same compound, the GI50 (NCI-H460) was 21.3 µM (inactive), the GI50 (SF-295) was 17.2 µM (inactive) and the GI50 (COLO 205) was 19.6 µM (inactive). For the same compound, the GI50 (PC-3) was 17.1 µM (inactive), the GI50 (SNB-19) was 17.2 µM (inactive) and the GI50 (ACHN) was 18.7 µM (inactive). For the same compound, the GI50 (Hs-578T) was 19.8 µM (inactive), the GI50 (HT-29) was 19.2 µM (inactive) and the GI50 (NCI-H23) was 14.7 µM (inactive). The GI50 (MDA-MB-435) was 13.8 µM (inactive) and the GI50 (CAKI-1) was 15.2 µM (inactive).
